In the oligonucleotide strings, read from the 5' end, every base follows the letter of its sugar. An asterisk marks phosphorothioate; unmarked linkages are phosphodiester. Other units and linkages are bracketed, terminal groups are in braces. A string of capitals states the bases alone. e = 2'-O-(2-methoxyethyl) (MOE); [5mC] = 5-methylcytosine; d = 2'-deoxy (DNA)
Tested on: T47D cells
Assay: Caspase-3 activity assay (apoptosis) in T47D cells
Settings: for apoptosis in T47D cells: caspase assay, conclusion from Tables 9-12; for apoptosis in T47D cells / Fold Increase over UTC (caspase activity): 200 nM; for Fold Increase over UTC (caspase-3 activity, apoptosis) / Fold Increase over UTC (caspase activity): T47D cells, 48 hours; for Fold Increase over UTC (caspase-3 activity, apoptosis): 200 nM oligomeric compound; for Fold Increase over UTC (caspase activity): relative to untreated control

SEQ ID NO 541: gapmer of Tables 9-12 having this SEQ ID NO (eG*eA*eG*e[5mC]*eA*dT*dG*d[5mC]*dA*dA*d[5mC]*dA*d[5mC]*dT*d[5mC]*eT*eG*eT*eG*e[5mC])
apoptosis in T47D cells: prevent or have a protective effect from apoptosis

328427 (antisense eG*eA*eT*eG*eT*d[5mC]*dA*d[5mC]*dT*dG*dA*dG*dG*dA*dA*eA*eT*e[5mC]*eA*e[5mC]) [compound 328427]
Fold Increase over UTC (caspase-3 activity, apoptosis) (experiment of Table 11): 0.8 fold

328639 (eG*eA*e[5mC]*eT*eA*d[5mC]*dT*dG*dT*dT*dG*dA*dG*dA*dG*eG*eA*eA*e[5mC]*eA; antisense) [compound 328639]
Fold Increase over UTC (caspase-3 activity, apoptosis) (experiment of Table 11): 0.8 fold

328413 (antisense eA*eA*eT*eT*eG*dT*dA*dT*dG*dA*d[5mC]*dA*dT*dT*dA*eA*eA*eT*e[5mC]*eA) [compound 328413]
Fold Increase over UTC (caspase-3 activity, apoptosis) (experiment of Table 11): 0.8 fold

SEQ ID NO 495: gapmer of Tables 9-12 having this SEQ ID NO (antisense eA*e[5mC]*e[5mC]*eT*eG*dT*dG*dT*dA*dA*d[5mC]*dA*dG*d[5mC]*d[5mC]*eG*eT*eG*eT*eA)
apoptosis in T47D cells: prevent or have a protective effect from apoptosis

328405 (antisense e[5mC]*eT*eG*eA*eA*d[5mC]*dA*dG*dG*dG*dT*dA*dA*dA*dA*eT*e[5mC]*eA*e[5mC]*eT) [compound 328405]
Fold Increase over UTC (caspase activity): 1.0

ISIS 328391: 5-10-5 2′-MOE gapmer PS; targets hypothetical miRNA-044 pri-miRNA (eA*eT*eG*eG*eT*dA*dA*dT*dT*dT*d[5mC]*dA*dT*dT*dT*e[5mC]*eA*eG*eG*e[5mC])
apoptosis in T47D cells: prevent or have a protective effect from apoptosis

SEQ ID NO 536: gapmer of Tables 9-12 having this SEQ ID NO (eG*eA*eT*eG*eT*d[5mC]*dA*d[5mC]*dT*dG*dA*dG*dG*dA*dA*eA*eT*e[5mC]*eA*e[5mC])
apoptosis in T47D cells: prevent or have a protective effect from apoptosis

SEQ ID NO 521: gapmer of Tables 9-12 having this SEQ ID NO (antisense eT*eT*eT*eA*e[5mC]*dT*d[5mC]*dA*dT*dA*d[5mC]*d[5mC]*dT*d[5mC]*dG*e[5mC]*eA*eA*e[5mC]*e[5mC])
apoptosis in T47D cells: induce apoptosis

328638 (e[5mC]*e[5mC]*eG*eA*eG*dG*dG*dT*d[5mC]*dT*dA*dA*d[5mC]*d[5mC]*d[5mC]*eA*eG*e[5mC]*e[5mC]*e[5mC]; antisense) [compound 328638]
Fold Increase over UTC (caspase-3 activity, apoptosis) (experiment of Table 11): 0.8 fold

TACAATTTGGGAGTCCTGAA (antisense; same sequence listed as MOE 5-10-5 gapmer and as uniform MOE, further chemistry not given here) [ISIS 328689]
apoptosis in T47D cells: prevent or have a protective effect from apoptosis

328411 (antisense eT*eA*e[5mC]*e[5mC]*eT*d[5mC]*dT*dG*d[5mC]*dA*dG*dT*dA*dT*dT*e[5mC]*eT*eA*e[5mC]*eA) [compound 328411]
Fold Increase over UTC (caspase-3 activity, apoptosis) (experiment of Table 11): 0.8 fold

328655 (eT*eA*e[5mC]*eA*eA*d[5mC]*dG*dG*d[5mC]*dA*dT*dT*dG*dT*d[5mC]*e[5mC]*eT*eG*eA*eA; antisense) [compound 328655]
Fold Increase over UTC (caspase-3 activity, apoptosis) (experiment of Table 11): 0.7 fold

328672 (eA*eA*eG*eG*e[5mC]*dT*dT*dT*dT*dT*dG*d[5mC]*dT*d[5mC]*dA*eA*eG*eG*eG*e[5mC]; antisense) [compound 328672]
Fold Increase over UTC (caspase-3 activity, apoptosis) (experiment of Table 10): 0.9 fold

328692 (eT*eT*eG*eT*eA*dT*dG*dG*dA*d[5mC]*dA*dT*dT*dT*dA*eA*eA*eT*e[5mC]*eA; antisense) [compound 328692]
Fold Increase over UTC (caspase activity): 1.2

328373 (eG*eG*eG*eA*eA*dG*dG*dA*dT*dT*dG*d[5mC]*d[5mC]*dT*dA*eG*e[5mC]*eA*eG*eT; antisense) [compound 328373]
Fold Increase over UTC (caspase-3 activity, apoptosis) (experiment of Table 12): 0.9 fold

328408 (antisense eT*eA*eG*eA*e[5mC]*dA*dA*dA*dA*dA*d[5mC]*dA*dG*dA*d[5mC]*eT*e[5mC]*eT*eG*eA) [compound 328408]
Fold Increase over UTC (caspase-3 activity, apoptosis) (experiment of Table 10): 0.9 fold

328656 (eT*eT*eT*e[5mC]*eA*dG*dG*d[5mC]*dT*d[5mC]*dA*d[5mC]*d[5mC]*dT*d[5mC]*e[5mC]*e[5mC]*e[5mC]*eA*eG; antisense) [compound 328656]
Fold Increase over UTC (caspase activity): 1.1

328640 (eT*e[5mC]*eT*e[5mC]*e[5mC]*dT*dT*dG*dG*dG*dT*dG*dT*d[5mC]*d[5mC]*eT*e[5mC]*e[5mC]*eT*e[5mC]; antisense) [compound 328640]
Fold Increase over UTC (caspase-3 activity, apoptosis) (experiment of Table 12): 0.9 fold

328386 (eA*e[5mC]*e[5mC]*eT*eG*dT*dG*dT*dA*dA*d[5mC]*dA*dG*d[5mC]*d[5mC]*eG*eT*eG*eT*eA; antisense) [compound 328386]
Fold Increase over UTC (caspase-3 activity, apoptosis) (experiment of Table 11): 0.7 fold

328402 (antisense eT*eT*eG*eA*eA*d[5mC]*dT*d[5mC]*d[5mC]*dA*dT*dG*d[5mC]*d[5mC]*dA*e[5mC]*eA*eA*eG*eG) [compound 328402]
Fold Increase over UTC (caspase-3 activity, apoptosis) (experiment of Table 10): 1.2 fold

AATCCATTGAAGAGGCGATT (antisense; same sequence listed as MOE 5-10-5 gapmer and as uniform MOE, further chemistry not given here) [ISIS 328650]
apoptosis in T47D cells: prevent or have a protective effect from apoptosis

328658 (eA*eG*eA*eA*eT*dG*dA*dG*dT*dT*dG*dA*d[5mC]*dA*dT*eA*e[5mC]*e[5mC]*eA*eA; antisense) [compound 328658]
Fold Increase over UTC (caspase-3 activity, apoptosis) (experiment of Table 12): 1.2 fold

CAAACGGTAAGATTTGCAGA (antisense; same sequence listed as MOE 5-10-5 gapmer and as uniform MOE, further chemistry not given here) [ISIS 328694]
apoptosis in T47D cells: prevent or have a protective effect from apoptosis

SEQ ID NO 539: gapmer of Tables 9-12 having this SEQ ID NO (e[5mC]*e[5mC]*eG*eG*e[5mC]*dT*dA*dT*dT*dG*dA*dG*dT*dT*dA*eT*eG*eT*eA*e[5mC])
apoptosis in T47D cells: induce apoptosis

SEQ ID NO 485: gapmer of Tables 9-12 having this SEQ ID NO (antisense eT*e[5mC]*eA*e[5mC]*eA*dA*dT*d[5mC]*d[5mC]*d[5mC]*d[5mC]*dA*d[5mC]*d[5mC]*dA*eA*eA*e[5mC]*eT*e[5mC])
apoptosis in T47D cells: prevent or have a protective effect from apoptosis

ISIS 328371: 5-10-5 2′-MOE gapmer PS; targets mir-1d pri-miRNA (eT*e[5mC]*e[5mC]*eA*eT*dA*dG*d[5mC]*dT*dT*dA*dG*d[5mC]*dA*dG*eG*eT*e[5mC]*e[5mC]*eA)
apoptosis in T47D cells: induce apoptosis

328401 (antisense eG*e[5mC]*e[5mC]*e[5mC]*eT*d[5mC]*dG*dA*d[5mC]*dG*dA*dA*dA*dA*d[5mC]*e[5mC]*eG*eA*e[5mC]*eT) [compound 328401]
Fold Increase over UTC (caspase-3 activity, apoptosis) (experiment of Table 12): 0.8 fold

328392 (eG*eA*eT*eT*eG*d[5mC]*dA*d[5mC]*dA*dT*d[5mC]*d[5mC]*dA*d[5mC]*dA*e[5mC]*eT*eG*eT*e[5mC]; antisense) [compound 328392]
Fold Increase over UTC (caspase activity): 1.0
